Assay results taken from patent US20240092758A1, “IMIDAZOLO INDAZOLE COMPOUNDS AS JAK INHIBITORS” (Theravance Biopharma R&D IP, LLC, priority 2021, published 2024).

Tests used:
JAK1 = JAK1 (Homo sapiens (Human), UniProt P23458); assay: Biochemical JAK kinase assay (LanthaScreen), JAK1; conditions: for Ki: read-out: JAK1 pKi (converted)
In short: (§1)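 LanthaScreen format: phospho-STAT1 (pTyr701) detected with 2 nM Tb antibody after 10 mM EDTA quench. Kinase step used Km-level ATP and 200 nM STAT1 peptide, 1 h at ambient after 1 h pre-incubation. Inhibition fitted to IC50, reported as pKi.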

TYK2 = TYK2 (Homo sapiens (Human), UniProt P29597); assay: Biochemical JAK kinase assay (LanthaScreen), Tyk2; conditions: read-out: Tyk2 pKi (converted)
Chain of TYK2 (P29597 whole entry): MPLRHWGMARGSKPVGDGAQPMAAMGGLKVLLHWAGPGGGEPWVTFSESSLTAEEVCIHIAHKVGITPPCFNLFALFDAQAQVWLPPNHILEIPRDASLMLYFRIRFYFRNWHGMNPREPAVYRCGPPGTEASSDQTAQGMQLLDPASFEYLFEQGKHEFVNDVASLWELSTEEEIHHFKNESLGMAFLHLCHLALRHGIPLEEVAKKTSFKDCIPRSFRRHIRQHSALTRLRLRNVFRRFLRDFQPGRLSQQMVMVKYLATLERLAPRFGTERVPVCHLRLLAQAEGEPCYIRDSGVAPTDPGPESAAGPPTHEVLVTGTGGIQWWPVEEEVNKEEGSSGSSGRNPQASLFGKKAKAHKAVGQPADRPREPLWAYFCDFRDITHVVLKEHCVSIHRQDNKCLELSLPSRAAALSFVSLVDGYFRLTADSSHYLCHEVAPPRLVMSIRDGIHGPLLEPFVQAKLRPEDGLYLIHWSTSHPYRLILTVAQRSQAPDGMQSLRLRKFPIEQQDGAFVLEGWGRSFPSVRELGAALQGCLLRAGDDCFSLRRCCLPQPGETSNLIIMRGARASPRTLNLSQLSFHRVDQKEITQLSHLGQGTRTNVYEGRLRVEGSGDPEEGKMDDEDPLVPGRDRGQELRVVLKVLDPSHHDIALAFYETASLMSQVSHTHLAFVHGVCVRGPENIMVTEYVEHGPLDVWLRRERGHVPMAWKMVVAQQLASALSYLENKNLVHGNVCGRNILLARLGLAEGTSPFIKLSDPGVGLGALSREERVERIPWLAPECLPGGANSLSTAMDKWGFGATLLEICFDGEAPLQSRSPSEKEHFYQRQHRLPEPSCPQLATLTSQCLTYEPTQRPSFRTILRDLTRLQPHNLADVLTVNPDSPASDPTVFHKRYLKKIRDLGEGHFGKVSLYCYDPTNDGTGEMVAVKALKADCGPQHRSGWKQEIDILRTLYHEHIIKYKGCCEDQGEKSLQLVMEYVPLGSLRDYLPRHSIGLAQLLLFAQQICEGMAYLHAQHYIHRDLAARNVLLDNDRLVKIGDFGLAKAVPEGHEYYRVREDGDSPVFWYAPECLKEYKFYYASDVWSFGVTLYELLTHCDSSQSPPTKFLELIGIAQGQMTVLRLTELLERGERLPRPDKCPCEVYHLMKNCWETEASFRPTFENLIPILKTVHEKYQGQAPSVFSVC
Description: (§2) A panel of four LanthaScreen JAK biochemical assays (JAK1, 2, 3 and Tyk2) were carried in a common kinase reaction buffer (50 mM HEPES, pH 7.5, 0.01% Brij-35, 10 mM MgCl2, and 1 mM EGTA). Recombinant GST-tagged JAK enzymes and a GFP-tagged STAT1 peptide substrate were obtained from Life Technologies.
(§3) Serially diluted compounds were pre-incubated with each of the four JAK enzymes and the substrate in white 384-well microplates (Corning) at ambient temperature for 1 h. ATP was subsequently added to initiate the kinase reactions in 10 μL total volume, with 1% DMSO. The final enzyme concentrations for JAK1, 2, 3 and Tyk2 are 4.2 nM, 0.1 nM, 1 nM, and 0.25 nM respectively; the corresponding Km ATP concentrations used are 25 μM, 3 μM, 1.6 μM, and 10 μM; while the substrate concentration is 200 nM for all four assays. Kinase reactions were allowed to proceed for 1 hour at ambient temperature before a 10 μL preparation of EDTA (10 mM final concentration) and Tb-anti-pSTAT1 (pTyr701) antibody (Life Technologies, 2 nM final concentration) in TR-FRET dilution buffer (Life Technologies) was added. The plates were allowed to incubate at ambient temperature for 1 h before being read on the EnVision reader (Perkin Elmer). Emission ratio signals (520 nm/495 nm) were recorded and utilized to calculate the percent inhibition values based on DMSO and background controls.
(§4) For dose-response analysis, percent inhibition data were plotted vs. compound concentrations, and IC50 values were determined from a 4-parameter robust fit model with the Prism software (GraphPad Software). Results were expressed as pIC50 (negative logarithm of IC50) and subsequently converted to pKi (negative logarithm of dissociation constant, Ki) using the Cheng-Prusoff equation.
(§5) Test compounds having a lower Ki value or higher pKi value in the four JAK assays show greater inhibition of JAK activity.

JAK3 = JAK3 (Homo sapiens (Human), UniProt P52333); assay: Biochemical JAK kinase assay (LanthaScreen), JAK3; conditions: read-out: JAK3 pKi (converted)
Chain of JAK3 (P52333 whole entry): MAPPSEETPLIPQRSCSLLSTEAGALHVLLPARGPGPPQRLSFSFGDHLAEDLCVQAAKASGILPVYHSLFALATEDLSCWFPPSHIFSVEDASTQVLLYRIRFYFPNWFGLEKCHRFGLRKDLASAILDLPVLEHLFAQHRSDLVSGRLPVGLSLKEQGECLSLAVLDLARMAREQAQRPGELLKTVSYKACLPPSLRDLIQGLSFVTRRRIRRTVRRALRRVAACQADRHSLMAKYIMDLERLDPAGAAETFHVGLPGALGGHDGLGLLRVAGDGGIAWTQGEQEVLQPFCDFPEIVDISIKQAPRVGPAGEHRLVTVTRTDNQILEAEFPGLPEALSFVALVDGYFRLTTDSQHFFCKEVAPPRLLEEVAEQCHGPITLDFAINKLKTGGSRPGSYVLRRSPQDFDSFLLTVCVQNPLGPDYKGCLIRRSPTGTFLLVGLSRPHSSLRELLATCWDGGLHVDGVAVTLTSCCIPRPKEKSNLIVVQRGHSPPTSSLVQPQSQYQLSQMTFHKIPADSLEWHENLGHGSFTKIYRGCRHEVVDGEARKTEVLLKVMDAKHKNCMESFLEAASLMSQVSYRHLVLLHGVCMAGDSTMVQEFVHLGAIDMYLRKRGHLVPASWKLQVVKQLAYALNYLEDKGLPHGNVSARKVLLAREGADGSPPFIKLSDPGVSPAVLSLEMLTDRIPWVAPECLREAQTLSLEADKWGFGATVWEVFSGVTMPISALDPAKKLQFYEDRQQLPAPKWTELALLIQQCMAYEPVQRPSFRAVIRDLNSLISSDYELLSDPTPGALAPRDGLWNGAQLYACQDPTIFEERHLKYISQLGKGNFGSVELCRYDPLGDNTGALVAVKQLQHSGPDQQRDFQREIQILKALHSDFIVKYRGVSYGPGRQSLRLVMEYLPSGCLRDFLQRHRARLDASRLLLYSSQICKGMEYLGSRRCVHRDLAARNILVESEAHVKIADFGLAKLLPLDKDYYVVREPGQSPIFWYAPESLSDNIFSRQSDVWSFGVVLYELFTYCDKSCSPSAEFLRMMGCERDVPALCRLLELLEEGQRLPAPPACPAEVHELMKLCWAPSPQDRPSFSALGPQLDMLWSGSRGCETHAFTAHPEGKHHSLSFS
Description: as §2, §3, §4, §5

[1] = tested on: IL-13 induced STAT6 phosphorylation in BEAS-2B human lung epithelial cells; assay: Cellular JAKI potency assay (BEAS-2B); type: cell-based; conditions: Homo sapiens, BEAS-2B, BEAS-2B cells, read-out: BEAS2B pIC50 (converted)
In short: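 BEAS-2B cells were preincubated with compound (0.1% DMSO) in HBSS/HEPES/BSA for 1 h at 37 °C, then stimulated with IL-13 (80 ng/mL before addition) for 30 min. After lysis, pSTAT6 (Tyr641) was quantified by AlphaLISA SureFire; IC50 from a 4-parameter fit of percent inhibition, reported as pIC50.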

JAK2 = JAK2 (Homo sapiens (Human), UniProt O60674); assay: Biochemical JAK kinase assay (LanthaScreen), JAK2; conditions: for Ki: read-out: JAK2 pKi (converted)
Chain of JAK2 (O60674 whole entry): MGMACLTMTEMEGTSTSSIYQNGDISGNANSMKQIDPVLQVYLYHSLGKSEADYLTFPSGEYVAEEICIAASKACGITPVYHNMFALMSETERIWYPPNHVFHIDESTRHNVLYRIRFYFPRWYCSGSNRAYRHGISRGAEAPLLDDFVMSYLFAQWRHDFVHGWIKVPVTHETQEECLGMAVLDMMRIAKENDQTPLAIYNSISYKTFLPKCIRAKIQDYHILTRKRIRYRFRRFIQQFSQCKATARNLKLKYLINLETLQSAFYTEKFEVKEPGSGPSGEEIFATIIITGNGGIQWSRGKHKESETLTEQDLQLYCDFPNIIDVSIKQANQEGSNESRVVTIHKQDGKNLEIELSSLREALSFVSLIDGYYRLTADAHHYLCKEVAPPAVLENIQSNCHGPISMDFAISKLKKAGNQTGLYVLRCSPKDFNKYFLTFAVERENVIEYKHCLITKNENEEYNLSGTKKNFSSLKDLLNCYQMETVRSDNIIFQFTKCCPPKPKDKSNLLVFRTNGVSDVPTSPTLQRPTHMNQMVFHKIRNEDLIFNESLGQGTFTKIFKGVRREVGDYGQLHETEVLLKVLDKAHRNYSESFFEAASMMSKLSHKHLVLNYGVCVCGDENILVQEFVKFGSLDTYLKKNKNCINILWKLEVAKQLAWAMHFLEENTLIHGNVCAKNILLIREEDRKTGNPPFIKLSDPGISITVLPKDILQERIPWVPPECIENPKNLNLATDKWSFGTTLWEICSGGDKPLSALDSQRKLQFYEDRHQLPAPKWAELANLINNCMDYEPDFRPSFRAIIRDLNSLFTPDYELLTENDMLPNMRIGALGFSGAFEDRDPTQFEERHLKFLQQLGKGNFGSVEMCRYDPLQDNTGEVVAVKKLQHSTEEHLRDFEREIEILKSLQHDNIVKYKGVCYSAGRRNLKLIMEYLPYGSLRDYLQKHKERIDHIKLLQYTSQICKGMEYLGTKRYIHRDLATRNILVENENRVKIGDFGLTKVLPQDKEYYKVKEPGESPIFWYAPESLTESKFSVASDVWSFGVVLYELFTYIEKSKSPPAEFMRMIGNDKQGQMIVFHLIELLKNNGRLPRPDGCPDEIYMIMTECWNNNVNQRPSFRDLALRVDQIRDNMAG
In short: as §1

[2] = Pharmacokinetics in plasma and lung in mouse after oral aspiration administration; type: in vivo; conditions: male CD1 mice; for Lung Tissue AUC(0-24) / AUC(0-t): 0.2 mg/mL, two 25 μL increments; for Lung Tissue:Plasma AUC ratio: lung AUC to plasma AUC; for AUC(0-t): mouse, inhaled or intranasal, 0.01 mg/mouse, plasma, read-out: Plasma AUC(0-24)
Description: Plasma and lung concentrations of test compounds were quantified and pharmacokinetic parameters were calculated in the following manner. Male CD1 mice from Charles River Laboratories were used in the pharmacokinetic studies. Test compounds were individually formulated in 20% propylene glycol in pH 4 citrate buffer at a concentration of 0.2 mg/mL. Test compounds were administered in two, 25 μL increments introduced into the trachea of each mouse by oral aspiration using a calibrated pipette once the animal was anesthetized using isoflurane. Blood samples were collected as terminal collections via cardiac puncture at 0.167, 1, 4, 8, and 24 hr post-dosing. Following […] with CO2, a direct cardiac puncture was performed while avoiding puncturing the lung and blood was immediately transferred into K2EDTA tubes and placed on wet ice. Blood samples were centrifuged (Eppendorf centrifuge, 5804R) for 4 minutes at approximately 12,000 rpm at 4° C. to collect plasma. Intact lungs were also excised from these mice using the same timepoints (0.167, 1, 4, 8, and 24 hr). Lungs were washed with sterile water to remove any blood residue and were patted dry, weighed, and homogenized in 0.1% formic acid in water at a dilution of 1:3 (lung:water, weight/volume). Plasma and lung concentrations of test compounds were determined by LC-MS/MS analysis against analytical standards constructed into a standard curve in the test matrix. The pharmacokinetic parameters of test compounds were determined by non-compartmental analysis. For concentrations below the limit of quantification, zero was used for mean calculations. Mean values were not reported if more than 50% of the samples were below the limit of quantification at a timepoint, or if more than 50% of a calculated pharmacokinetic parameter was not reportable. The area under the concentration-time curve extrapolated to infinity (AUC(0-inf)) was calculated as follows: AUC(0-inf)=AUC(0-t)+Clast/k, where AUC(0-t) is the area under the concentration-time curve from the time of dosing to the last measurable concentration calculated by the linear trapezoidal rule, Clast is the last measurable concentration, and k is the first order rate constant associated with the terminal elimination phase, estimated by linear regression of time versus log concentration. The lung-to-plasma AUC ratio was determined as the ratio of the lung AUC(0-inf) in μg*hr/g to the plasma AUC(0-inf) in μg*hr/mL.

Chain of JAK1 (P23458 whole entry): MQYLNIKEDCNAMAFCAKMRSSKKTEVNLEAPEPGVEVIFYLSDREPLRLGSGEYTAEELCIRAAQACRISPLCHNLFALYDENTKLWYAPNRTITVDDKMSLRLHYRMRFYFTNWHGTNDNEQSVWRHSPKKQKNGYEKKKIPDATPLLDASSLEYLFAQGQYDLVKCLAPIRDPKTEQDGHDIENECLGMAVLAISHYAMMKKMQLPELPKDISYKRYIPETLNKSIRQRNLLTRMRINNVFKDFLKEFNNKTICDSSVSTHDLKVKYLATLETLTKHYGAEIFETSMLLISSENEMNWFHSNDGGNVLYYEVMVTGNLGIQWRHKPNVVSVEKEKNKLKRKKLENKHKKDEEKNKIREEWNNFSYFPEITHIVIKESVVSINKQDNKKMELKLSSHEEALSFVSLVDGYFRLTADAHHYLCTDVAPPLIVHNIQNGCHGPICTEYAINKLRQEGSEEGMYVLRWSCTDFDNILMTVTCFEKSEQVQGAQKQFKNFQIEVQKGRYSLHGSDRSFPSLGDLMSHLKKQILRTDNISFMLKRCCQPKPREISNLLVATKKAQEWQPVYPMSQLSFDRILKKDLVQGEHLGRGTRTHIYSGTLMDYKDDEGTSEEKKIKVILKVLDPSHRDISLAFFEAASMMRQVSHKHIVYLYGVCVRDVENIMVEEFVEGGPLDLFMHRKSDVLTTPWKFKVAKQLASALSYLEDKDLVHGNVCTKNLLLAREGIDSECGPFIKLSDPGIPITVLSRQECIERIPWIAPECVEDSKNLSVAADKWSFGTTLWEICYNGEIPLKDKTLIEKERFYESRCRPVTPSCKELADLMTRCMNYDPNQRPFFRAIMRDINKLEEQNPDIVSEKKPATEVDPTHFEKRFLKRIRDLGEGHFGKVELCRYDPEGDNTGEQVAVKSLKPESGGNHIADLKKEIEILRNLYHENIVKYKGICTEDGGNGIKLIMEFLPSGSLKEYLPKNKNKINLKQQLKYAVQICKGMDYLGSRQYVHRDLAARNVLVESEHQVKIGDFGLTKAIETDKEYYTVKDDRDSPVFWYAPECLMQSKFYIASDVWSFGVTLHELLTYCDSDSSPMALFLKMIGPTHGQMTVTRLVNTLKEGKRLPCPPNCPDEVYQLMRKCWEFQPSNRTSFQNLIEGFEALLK

Row | SMILES | Ki (JAK1) | Ki (TYK2) | Ki (JAK3) | IC50 [1] | Ki (JAK2) | Lung Tissue AUC(0-24) [2] | Lung Tissue:Plasma AUC ratio [2] | AUC(0-t) [2] | JAK2 pKi (JAK2) | JAK1 pKi (JAK1)
1 | CCc1cc(O)ccc1-c1ccc2c(-c3nc(C4=CCN(S(=O)(=O)C5CNC5)CC4)c[nH]3)n[nH]c2c1 [Example 175] | 0.1 to 1 nM | 1 to 10 nM | 0.1 to 1 nM | 31.6 to 100 nM | 0.1 to 1 nM | – | – | – | – | –
2 | CCc1cc(O)ccc1-c1ccc2c(-c3nc(C4=CC(CC)NC4)c[nH]3)n[nH]c2c1F (stereo not drawn) [Example 321] | 0.1 to 1 nM | 1 to 10 nM | 0.1 to 1 nM | 10 to 31.6 nM | 0.1 to 1 nM | – | – | – | – | –
3 | CCc1cc(O)ccc1-c1ccc2c(-c3nc(C4=CC5CCCC(C4)N5)c[nH]3)n[nH]c2c1 (stereo not drawn) [Example 225] | 0.1 to 1 nM | 1 to 10 nM | 0.1 to 1 nM | 31.6 to 100 nM | 0.1 to 1 nM | – | – | – | – | –
4 | CCc1cc(O)ccc1-c1ccc2c(-c3nc(C4=C[C@H](COC)NC4)c[nH]3)n[nH]c2c1 [Example 241] | 0.1 to 1 nM | – | – | 3.16 to 10 nM | 0.1 to 1 nM | C (C denotes a value between 9 and 50) | D (D denotes a ratio between 50 and 100) | 500 to 1000 ng·h/mL | – | –
5 | CCc1cc(O)ccc1-c1ccc2c(-c3nc(C4=CCCN(CCN5CCOCC5)C4)c[nH]3)n[nH]c2c1F [Example 198] | 0.1 to 1 nM | 1 to 10 nM | – | 10 to 31.6 nM | 0.1 to 1 nM | – | – | – | – | –
6 | CCc1cc(O)ccc1-c1ccc2c(-c3nc(C4=CCN(C(C)CO)CC4)c[nH]3)n[nH]c2c1F (stereo not drawn) [Compound 13, 3-ethyl-4-(7-fluoro-3-(4-(1-(1-hydroxypropan-2-yl)-1,2,3,6-tetrahydropyridin-4-yl)-1H-imidazol-2-yl)-1H-indazol-6-yl)phenol] | 0.1 to 1 nM | – | – | 3.16 to 10 nM | – | B (B denotes a value between 50 and 100) | C (C denotes a ratio between 100 and 200) | 500 to 1000 ng·h/mL | – | –
7 | CCc1cc(O)ccc1-c1ccc2c(-c3nc(C4=CCN(CCNS(C)(=O)=O)CC4)c[nH]3)n[nH]c2c1F [Example 106] | 0.1 to 1 nM | – | – | 10 to 31.6 nM | – | C (C denotes a value between 9 and 50) | C (C denotes a ratio between 100 and 200) | < 500 ng·h/mL | A (A represents a pKi value ≥10 (Ki≤0.1 nM)) | –
8 | CCc1cc(O)ccc1-c1ccc2c(-c3nc(C4=CCN(C[C@H](C)CO)CC4)c[nH]3)n[nH]c2c1F [Example 38] | – | – | – | 10 to 31.6 nM | 0.1 to 1 nM | C (C denotes a value between 9 and 50) | D (D denotes a ratio between 50 and 100) | < 500 ng·h/mL | – | A (A represents a pKi value ≥10 (Ki≤0.1 nM))
9 | CCc1cc(O)ccc1-c1ccc2c(-c3nc(C4=CCN(C5CCN(C)CC5)CC4)c[nH]3)n[nH]c2c1 [Example 182] | – | 1 to 10 nM | – | 10 to 31.6 nM | 0.1 to 1 nM | – | – | – | – | A (A represents a pKi value ≥10 (Ki≤0.1 nM))
10 | CCc1cc(O)ccc1-c1ccc2c(-c3nc(C4=C(C)CCNC4)c[nH]3)n[nH]c2c1F [Example 236] | 0.1 to 1 nM | – | – | 10 to 31.6 nM | 0.1 to 1 nM | B (B denotes a value between 50 and 100) | C (C denotes a ratio between 100 and 200) | 500 to 1000 ng·h/mL | – | –
11 | CCc1cc(O)ccc1-c1ccc2c(-c3nc(C4=CCN(CCC(C)(C)O)C4)c[nH]3)n[nH]c2c1 [Example 51] | – | – | – | 3.16 to 10 nM | – | C (C denotes a value between 9 and 50) | C (C denotes a ratio between 100 and 200) | < 500 ng·h/mL | A (A represents a pKi value ≥10 (Ki≤0.1 nM)) | A (A represents a pKi value ≥10 (Ki≤0.1 nM))
12 | CCc1cc(O)ccc1-c1ccc2c(-c3nc(C4=CCCN(C[C@@H]5COCCN5)C4)c[nH]3)n[nH]c2c1 [Example 193] | 0.1 to 1 nM | 1 to 10 nM | – | 31.6 to 100 nM | 0.1 to 1 nM | – | – | – | – | –
13 | CCc1cc(O)ccc1-c1ccc2c(-c3nc(C4=CCN(CCN)CC4)c[nH]3)n[nH]c2c1F [Example 187] | 0.1 to 1 nM | 1 to 10 nM | – | 31.6 to 100 nM | 0.1 to 1 nM | – | – | – | – | –
14 | CCc1cc(O)ccc1-c1ccc2c(-c3nc(C4=CCCN(C5CCCNC5)C4)c[nH]3)n[nH]c2c1F (stereo not drawn) [Example 216] | 1 to 10 nM | 1 to 10 nM | – | 100 to 316 nM | 0.1 to 1 nM | – | – | – | – | –
15 | CCc1cc(O)ccc1-c1ccc2c(-c3nc(C4=CCN(C[C@@H]5COCCN5C)CC4)c[nH]3)n[nH]c2c1F [Example 210] | 0.1 to 1 nM | 1 to 10 nM | – | 10 to 31.6 nM | – | – | – | – | A (A represents a pKi value ≥10 (Ki≤0.1 nM)) | –
16 | CCc1cc(O)ccc1-c1ccc2c(-c3nc(C4=CCCN(C5CCCCC5)C4)c[nH]3)n[nH]c2c1F [Example 126] | 0.1 to 1 nM | 1 to 10 nM | – | 31.6 to 100 nM | – | – | – | – | – | –
17 | CCc1cc(O)ccc1-c1ccc2c(-c3nc(C4=CCN(C5CCNC5=O)C4)c[nH]3)n[nH]c2c1 (stereo not drawn) [Example 94] | 0.1 to 1 nM | – | – | 10 to 31.6 nM | – | C (C denotes a value between 9 and 50) | E (E denotes a ratio between 30 and 50) | < 500 ng·h/mL | A (A represents a pKi value ≥10 (Ki≤0.1 nM)) | –
18 | CCc1cc(O)ccc1-c1ccc2c(-c3nc(C4=CCN(C(=O)[C@@H]5CCCN5)C4)c[nH]3)n[nH]c2c1F [Example 181] | 0.1 to 1 nM | 1 to 10 nM | – | 31.6 to 100 nM | – | – | – | – | – | –
19 | CCc1cc(O)ccc1-c1ccc2c(-c3nc(C4=CCN(C5CCCCC5)CC4)c[nH]3)n[nH]c2c1F [Example 122] | 0.1 to 1 nM | 1 to 10 nM | – | 31.6 to 100 nM | – | – | – | – | – | –
20 | CCc1cc(O)ccc1-c1ccc2c(-c3nc(C4=CCCN(C5CCOCC5)C4)c[nH]3)n[nH]c2c1F [Example 69] | 0.1 to 1 nM | 1 to 10 nM | – | 10 to 31.6 nM | 0.1 to 1 nM | – | – | – | – | –
21 | CCc1cc(O)ccc1-c1ccc2c(-c3nc(C4=C[C@H](CC(=O)N(C)C)NC4)c[nH]3)n[nH]c2c1F [Example 255] | – | – | – | 10 to 31.6 nM | – | A (For the Lung Tissue AUC(0-24), A denotes a value between 100 and 200) | D (D denotes a ratio between 50 and 100) | 1000 to 1500 ng·h/mL | A (A represents a pKi value ≥10 (Ki≤0.1 nM)) | A (A represents a pKi value ≥10 (Ki≤0.1 nM))
